Measurements published in US9480259B2, “Pyrazolopyrans having herbicidal and pharmaceutical properties” (BASF SE, priority 2012, dated 2016).
pEC50: −log10 of the molar value.

Molecular target: Arabidopsis thaliana SHMT
Assay: SHMT activity assay (ED50 SHMT), coupled with N5,N10-CH2-THF dehydrogenase, NADH at 340 nm
Format: biochemical
In short: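 His-tagged SHMT purified on Ni-NTA. NADH formation followed at 340 nm for 30 min; ED50 from inhibition of initial velocity.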

[1] = Table 2, values given as upper bounds
[2] = Table 2, Arabidopsis thaliana SHMT enzyme assay, values given as upper bounds
[3] = inhibition of initial velocity of Arabidopsis thaliana SHMT
[4] = Arabidopsis thaliana SHMT enzyme assay, values given as upper bounds

Structure (SMILES)	pEC50 [1]	pEC50 [2]	other results
CCCC1(c2cc(C#N)cc(C(F)(F)F)c2)C(C#N)=C(N)Oc2[nH]nc(C(C)C)c21 (stereo not shown) [Compound 2.582]	> 8.00	–	–
CCC1(c2cc(Br)cc(C#N)c2)C(C#N)=C(N)Oc2[nH]nc(C)c21 (stereo not shown) [Compound 2.532]	> 8.00	–	–
N#CC1=C(N)Oc2[nH]ncc2C1(c1cc(Cl)cc(Cl)c1)C1CCC1 (stereo not shown) [Compound 2.244]	–	> 8.00	–
Cc1n[nH]c2c1C(c1ccc3c(c1)OCO3)(C1CCC1)C(C#N)=C(N)O2 (stereo not shown) [Compound 4.44]	–	–	pEC50 [3]: > 8.00
Cc1n[nH]c2c1C(c1cc(Cl)cc(-c3ccc(C(F)(F)F)cc3)c1)(C1CCC1)C(C#N)=C(N)O2 (stereo not shown) [Compound 2.250]	–	> 8.00	–
Cc1n[nH]c2c1C(c1cc(Br)cc(C#N)c1)(C1CC1)C(C#N)=C(N)O2 (stereo not shown) [Compound 2.365]	–	> 8.00	–
Cc1n[nH]c2c1C(c1cc(Cl)cc(C(F)(F)F)c1)(C(C)C)C(C#N)=C(N)O2 (stereo not shown) [Compound 2.316]	–	> 8.00	–
Cc1n[nH]c2c1C(c1ccc3c(c1)OC(F)(F)O3)(C1CCC1)C(C#N)=C(N)O2 (stereo not shown) [Compound 4.25]	–	–	pEC50 [3]: > 8.00
N#CC1=C(N)Oc2[nH]ncc2C1(c1cc(C#N)cc(-c2nccs2)c1)C1CCC1 (stereo not shown) [Compound 2.351]	–	> 8.00	–
COC(=O)c1cc(Cl)cc(-c2cc(C#N)cc(C3(C4CCC4)C(C#N)=C(N)Oc4[nH]nc(C)c43)c2)c1 (stereo not shown) [Compound 2.517]	> 8.00	–	–
CCOC(=O)COc1ccc(C2(CC)C(C#N)=C(N)Oc3[nH]nc(C)c32)cc1[N+](=O)[O-] (racemic) [Compound 2.43.]	> 6.00	–	–
Cc1n[nH]c2c1C(c1cccc(C(F)(F)F)c1)(C1CCC1)C(C#N)=C(N)O2 (stereo not shown) [Compound 2.169.]	> 8.00	–	–
Cc1n[nH]c2c1C(c1cc(Cl)cc(C(=O)OCc3ccccc3)c1)(C1CCC1)C(C#N)=C(N)O2 (stereo not shown) [Compound 2.381]	–	> 8.00	–
CCC1(c2ccc(OS(=O)(=O)C(C)C)c(C)c2)C(C#N)=C(N)Oc2[nH]nc(C)c21 (stereo not shown) [Compound 2.54.]	> 6.00	–	–
Cc1n[nH]c2c1C(c1ccc3[nH]c(C(F)(F)F)nc3c1)(C1CCC1)C(C#N)=C(N)O2 (stereo not shown) [Compound 4.48]	–	–	pEC50 [3]: > 7.00
Cc1n[nH]c2c1C(c1cc(Cl)cc(C(=O)O)c1)(C1CCC1)C(C#N)=C(N)O2 (stereo not shown) [Compound 2.382]	–	> 7.00	–
Cc1n[nH]c2c1C(c1cc(Cl)cc(CCC(=O)O)c1)(C1CCC1)C(C#N)=C(N)O2 (stereo not shown) [Compound 2.500]	> 8.00	–	–
Cc1n[nH]c2c1C(c1cc(Cl)cc(-c3ccc(NS(C)(=O)=O)cc3)c1)(C1CCC1)C(C#N)=C(N)O2 (racemic) [Compound 2.528]	> 8.00	–	–
Cc1n[nH]c2c1C(c1cc(Cl)cc(Cl)c1)(C1CC=CC1)C(C#N)=C(N)O2 (stereo not shown) [Compound 2.291]	–	> 8.00	–
Cc1n[nH]c2c1C(CC(C)C)(c1cc(C(F)(F)F)cc(C(F)(F)F)c1)C(C#N)=C(N)O2 (stereo not shown) [Compound 2.108.]	> 7.00	–	–
Cc1n[nH]c2c1C(c1ccc(-c3cccc(Cl)c3)s1)(C1CCC1)C(C#N)=C(N)O2 (stereo not shown) [Compound 4.6]	–	–	pEC50 [3]: > 8.00
COc1n[nH]c2c1C(c1cc(Cl)cc(OCC#N)c1)(C1CCC1)C(C#N)=C(N)O2 (stereo not shown) [Compound 2.444]	> 7.00	–	–
CCC1(c2ccc([N+](=O)[O-])cc2)C(C#N)=C(N)Oc2[nH]nc(C)c21 (stereo not shown) [Compound 2.40.]	> 6.00	–	–

Structure (SMILES)	pEC50 [1]	pEC50 [2]	other results
Cc1cc(C2(C3CC3)C(C#N)=C(N)Oc3[nH]nc(C)c32)ccc1O (stereo not shown) [Compound 2.111.]	> 5.00	–	–
Cc1n[nH]c2c1C(c1cc(C#N)cc(N(C)Cc3ccccc3)c1)(C1CCC1)C(C#N)=C(N)O2 (stereo not shown) [Compound 2.660]	–	–	pEC50 [4]: > 8.00
Cc1n[nH]c2c1C(c1cc(Cl)cc(Oc3ccccc3Cl)c1)(C1CCC1)C(C#N)=C(N)O2 (stereo not shown) [Compound 2.236]	–	> 8.00	–
N#CC1=C(N)Oc2[nH]ncc2C1(c1cc(Cl)cc(C#N)c1)C1CC1 (stereo not shown) [Compound 2.360]	–	> 7.00	–
CCCc1n[nH]c2c1C(c1ccc(Cl)cc1)(C1CC1)C(C#N)=C(N)O2 (stereo not shown) [Compound 2.115.]	> 7.00	–	–
Cc1n[nH]c2c1C(c1cc(Cl)cc(SCc3nnn[nH]3)c1)(C1CCC1)C(C#N)=C(N)O2 (stereo not shown) [Compound 2.667]	–	–	pEC50 [4]: > 8.00
CCC1(c2ccc(OCc3ccccc3)cc2)C(C#N)=C(N)Oc2[nH]nc(C)c21 (stereo not shown) [Compound 2.28.]	> 6.00	–	–
Cc1n[nH]c2c1C(c1cc(Cl)cc(I)c1)(C1CCC1)C(C#N)=C(N)O2 (stereo not shown) [Compound 2.299]	–	> 8.00	–
CCC1(c2cccc(C(F)(F)F)c2)C(C#N)=C(N)Oc2[nH]nc(C3CC3)c21 (stereo not shown) [Compound 2.119.]	> 6.00	–	–
Cc1n[nH]c2c1C(c1cccc(S(C)(=O)=O)c1)(C1CCC1)C(C#N)=C(N)O2 (stereo not shown) [Compound 2.313]	–	> 6.00	–
CCOC(=O)CS(=O)(=O)N(C)c1cc(C#N)cc(C2(C(C)C)C(C#N)=C(N)Oc3[nH]nc(C)c32)c1 (stereo not shown) [Compound 2.725]	–	–	pEC50 [4]: > 7.00
Cc1n[nH]c2c1C(c1cc(Cl)cc(Cl)c1)(C1(F)COC1)C(C#N)=C(N)O2 (racemic) [Compound 2.478]	> 7.00	–	–
Cc1n[nH]c2c1C(c1cc(Cl)cc(C(F)(F)F)c1)(C1(F)COC1)C(C#N)=C(N)O2 (stereo not shown) [Compound 2.502]	> 8.00	–	–
CC(=O)N(C)c1cc(C#N)cc(C2(C3(F)CC3)C(C#N)=C(N)Oc3[nH]nc(C)c32)c1 (stereo not shown) [Compound 2.451]	> 8.00	–	–
COC(=O)c1ccc(C2(C3CCC3)C(C#N)=C(N)Oc3[nH]nc(C)c32)s1 (stereo not shown) [Compound 4.27]	–	–	pEC50 [3]: > 8.00
Cc1n[nH]c2c1C(c1cncc(C(F)(F)F)c1)(C1CCC1)C(C#N)=C(N)O2 (stereo not shown) [Compound 4.35]	–	–	pEC50 [3]: > 8.00
Cc1n[nH]c2c1C(c1cc(C#N)cc(-c3cccc(C(F)(F)F)c3)c1)(C1CCC1)C(C#N)=C(N)O2 (stereo not shown) [Compound 2.325]	–	> 8.00	–
Cc1n[nH]c2c1C(c1cc(C#N)cc(N(C)S(=O)(=O)CC(=O)O)c1)(C1CCC1)C(C#N)=C(N)O2 (stereo not shown) [Compound 2.731]	–	–	pEC50 [4]: > 7.00
Cc1n[nH]c2c1C(c1cc(Cl)c(F)c(Cl)c1)(C1CCC1)C(C#N)=C(N)O2 (stereo not shown) [Compound 2.242]	–	> 8.00	–
COc1ccc(C2(C3CCC3)C(C#N)=C(N)Oc3[nH]nc(C)c32)cc1Cl (stereo not shown) [Compound 2.178.]	> 8.00	–	–
Cc1n[nH]c2c1C(c1cc(Cl)cc(NS(=O)(=O)c3ccccc3)c1)(C1CCC1)C(C#N)=C(N)O2 (stereo not shown) [Compound 2.490]	> 8.00	–	–
Cc1n[nH]c2c1C(c1cc(Cl)cc(Cl)c1)(C1CC1)C(C#N)=C(N)O2 (stereo not shown) [Compound 2.61.]	> 6.00	–	–
CCC1(c2cc(C#N)cc(C(F)(F)F)c2)C(C#N)=C(N)Oc2[nH]nc(C(C)C)c21 (stereo not shown) [Compound 2.581]	> 7.00	–	–

Structure (SMILES)	pEC50 [1]	pEC50 [2]	other results
CCCC1(c2cc(Br)cc(C#N)c2)C(C#N)=C(N)Oc2[nH]nc(C(C)C)c21 (stereo not shown) [Compound 2.585]	> 7.00	–	–
N#CC1=C(N)Oc2[nH]ncc2C1(c1cc(Cl)cc(Cl)c1)C1CCCC1 (stereo not shown) [Compound 2.256]	–	> 5.00	–
CSc1ccc(C2(C(C)C)C(C#N)=C(N)Oc3[nH]nc(C)c32)cc1 (stereo not shown) [Compound 2.123.]	> 7.00	–	–
Cc1n[nH]c2c1C(c1ccc(-c3ccc(Cl)cc3)s1)(C1CCC1)C(C#N)=C(N)O2 (stereo not shown) [Compound 4.20]	–	–	pEC50 [3]: > 8.00
COC(=O)c1cc(C(=O)O)cc(-c2cc(C#N)cc(C3(C4CCC4)C(C#N)=C(N)Oc4[nH]nc(C)c43)c2)c1 (stereo not shown) [Compound 2.571]	> 7.00	–	–
Cc1n[nH]c2c1C(c1cc(Cl)cc(-c3cccs3)c1)(C1CCC1)C(C#N)=C(N)O2 (stereo not shown) [Compound 2.263]	–	> 8.00	–
N#CC1=C(N)Oc2[nH]ncc2C1(c1cccc(SC(F)(F)F)c1)C1CCC1 (stereo not shown) [Compound 2.297]	–	> 7.00	–
COc1ccc(C2(C3CCCC3)C(C#N)=C(N)Oc3[nH]ncc32)cc1Cl (stereo not shown) [Compound 2.254]	–	> 5.00	–
Cc1n[nH]c2c1C(c1cc(-c3ccccc3)cs1)(C(C)C)C(C#N)=C(N)O2 (stereo not shown) [Compound 4.81]	–	–	pEC50 [3]: > 5.00
CCC1(c2ccc(F)c(Oc3ccccc3)c2)C(C#N)=C(N)Oc2[nH]nc(C)c21 (stereo not shown) [Compound 2.11.]	> 6.00	–	–
Cc1n[nH]c2c1C(c1cc(Cl)cc(-c3ccccc3)c1)(C1CC1)C(C#N)=C(N)O2 (stereo not shown) [Compound 2.184.]	> 7.00	–	–
Cc1n[nH]c2c1C(c1cccc(OC(F)(F)F)c1)(C1CCC1)C(C#N)=C(N)O2 (stereo not shown) [Compound 2.278]	–	> 8.00	–
Cc1n[nH]c2c1C(c1cc(C#N)cc(-c3cccc(C(=O)O)c3)c1)(C1(F)CC1)C(C#N)=C(N)O2 (stereo not shown) [Compound 2.511]	> 8.00	–	–
CCCC1(c2cc(C#N)cc(C(F)(F)F)c2)C(C#N)=C(N)Oc2[nH]nc(COC)c21 (stereo not shown) [Compound 2.589]	> 7.00	–	–
CCC1(c2ccc(C(C)(C)C)cc2)C(C#N)=C(N)Oc2[nH]nc(C)c21 (stereo not shown) [Compound 2.7.]	> 5.00	–	–
Cc1n[nH]c2c1C(c1ccc(CC#N)c(C#N)c1)(C1CCC1)C(C#N)=C(N)O2 (stereo not shown) [Compound 2.672]	–	–	pEC50 [4]: > 8.00
CCC1(c2cc(Cl)cc(C#N)c2)C(C#N)=C(N)Oc2[nH]nc(C(C)C)c21 (stereo not shown) [Compound 2.580]	> 7.00	–	–
CCC1(c2cc(C)cc(Br)c2)C(C#N)=C(N)Oc2[nH]nc(C)c21 (stereo not shown) [Compound 2.469]	> 8.00	–	–
Cc1n[nH]c2c1C(c1cc(Cl)cc(-c3ccc(O)cc3)c1)(C1CCC1)C(C#N)=C(N)O2 (stereo not shown) [Compound 2.226]	–	> 8.00	–
CCC1(c2cccc(Cl)c2)C(C#N)=C(N)Oc2[nH]nc(C(C)C)c21 (stereo not shown) [Compound 2.116.]	> 6.00	–	–
CCOc1n[nH]c2c1C(c1cc(C#N)cc(C(F)(F)F)c1)(C1CC1)C(C#N)=C(N)O2 (stereo not shown) [Compound 2.393]	–	> 6.00	–
